# Square brackets hold non-standard residues; d marks the D form. Peptide text beside a SMILES is read from it. * marks the point of attachment. His(Trt) = N[C@@H](Cc1cn(C(c2ccccc2)(c2ccccc2)c2ccccc2)cn1)C(=O)O; dPhe(4-Br) = N[C@H](Cc1ccc(Br)cc1)C(=O)O; dPhe(4-F) = N[C@H](Cc1ccc(F)cc1)C(=O)O; Palmitoyl = CCCCCCCCCCCCCCCC(=O)*; Lauroyl = CCCCCCCCCCCC(=O)*; Octanoyl = CCCCCCCC(=O)*
# Biological target: T1, GPR39 (Homo sapiens, UniProt O43194)
# T1 sequence (O43194 1-453): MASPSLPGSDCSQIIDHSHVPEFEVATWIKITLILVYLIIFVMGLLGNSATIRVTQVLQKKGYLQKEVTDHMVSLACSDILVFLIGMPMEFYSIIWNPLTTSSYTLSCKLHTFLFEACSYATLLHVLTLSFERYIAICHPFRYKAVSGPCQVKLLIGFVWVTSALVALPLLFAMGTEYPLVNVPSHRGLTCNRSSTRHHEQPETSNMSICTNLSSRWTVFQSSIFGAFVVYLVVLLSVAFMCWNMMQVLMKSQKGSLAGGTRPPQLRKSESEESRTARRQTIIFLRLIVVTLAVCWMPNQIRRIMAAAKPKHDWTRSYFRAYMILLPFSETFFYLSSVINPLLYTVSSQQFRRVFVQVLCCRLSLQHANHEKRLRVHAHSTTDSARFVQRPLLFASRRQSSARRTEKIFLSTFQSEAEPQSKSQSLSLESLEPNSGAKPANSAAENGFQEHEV
# Description: Specifically, the fibroblast cell line CV-1 (1×10^5 cells/ml, Korea Cell Line Bank) was cultured in a 96 well cell culture plate for 24 hours, and then treated with GPR39 inserted into adenovirus and SRE (serum response element) luciferase at 50 MOI (multiplicity of infection) and 25 MOI virus for 3 hours, respectively, and then cultured for 24 hours.
row,ECmax (-fold induction over basal),SMILES
1,18 ± 1.7 -fold induction over basal,"CCCCCCCC(=O)NCCCC[C@H](NC(=O)[C@@H](N)Cc1cn(CCc2ccccc2)cn1)C(=O)N[C@@H](Cc1ccccc1)C(=O)N[C@@H](Cc1ccc(O)cc1)C(=O)O [HKFY-19, N6-octanoyl-N2-(Nt-phenethyl-L-histidyl)-L-lysyl-L-phenylalanyl-L-tyrosine]"
2,20.26 ± 2.7 -fold induction over basal,"CCCCCCCC(=O)NCCCC[C@H](NC(=O)[C@@H](N)Cc1cn(C(c2ccccc2)c2ccc(OC)cc2)cn1)C(=O)N[C@@H](Cc1ccccc1)C(=O)N[C@@H](Cc1ccc(O)cc1)C(=O)O (stereo partly drawn) [HKFY-20, N2-(Nt-((4-methoxyphenyl)(phenyl)methyl)-L-histidyl)-N6-octanoyl-L-lysyl-L-phenylalanyl-L-tyrosine]"
3,18.3 ± 2.5 -fold induction over basal,"CCCCCCCC(=O)NCCCC[C@H](NC(=O)[C@@H](N)Cc1cn([C@H](c2ccccc2)c2ccc(Cl)cc2)cn1)C(=O)N[C@@H](Cc1ccccc1)C(=O)N[C@@H](Cc1ccc(O)cc1)C(=O)O [HKFY-21, N2-(Nt-((R)-(4-chlorophenyl)(phenyl)methyl)-L-histidyl)-N6-octanoyl-L-lysyl-L-phenylalanyl-L-tyrosine]"
4,21.3 ± 1.8 -fold induction over basal,"CCCCCCCC(=O)NCCCC[C@H](NC(=O)[C@@H](N)Cc1cn([C@H](c2ccccc2)c2ccc(C)cc2)cn1)C(=O)N[C@@H](Cc1ccccc1)C(=O)N[C@@H](Cc1ccc(O)cc1)C(=O)O [HKFY-22, N6-octanoyl-N2-(Nt-((R)-phenyl(p-tolyl)methyl)-L-histidyl)-L-lysyl-L-phenylalanyl-L-tyrosine]"
5,15 ± 1.37 -fold induction over basal,"CCCCCCCC(=O)NCCCC[C@H](NC(=O)[C@@H](N)Cc1cn(C23CC4CC(CC(C4)C2)C3)cn1)C(=O)N[C@@H](Cc1ccccc1)C(=O)N[C@@H](Cc1ccc(O)cc1)C(=O)O [HKFY-23, N2-(Nt-(adamantan-1-yl)-L-histidyl)-N6-octanoyl-L-lysyl-L-phenylalanyl-L-tyrosine]"
6,7.72 ± 0.57 -fold induction over basal,"CCCCCCCCCCCC(=O)NCCCC[C@H](NC(=O)[C@@H](N)Cc1cn(C(c2ccccc2)(c2ccccc2)c2ccccc2)cn1)C(=O)N[C@@H](Cc1ccccc1)C(=O)N[C@@H](Cc1ccc(O)cc1)C(=O)O [HKFY-25, N6-dodecanoyl-N2-(Nt-trityl-L-histidyl)-L-lysyl-L-phenylalanyl-L-tyrosine] (H-[His(Trt)]K(Lauroyl)FY-OH)"
7,20.4 ± 0.57 -fold induction over basal,"CCCCCCCCCCCCCCCC(=O)NCCCC[C@H](NC(=O)[C@@H](N)Cc1cn(C(c2ccccc2)(c2ccccc2)c2ccccc2)cn1)C(=O)N[C@@H](Cc1ccccc1)C(=O)N[C@@H](Cc1ccc(O)cc1)C(=O)O [HKFY-27, N6-palmitoyl-N2-(Nt-trityl-L-histidyl)-L-lysyl-L-phenylalanyl-L-tyrosine] (H-[His(Trt)]K(Palmitoyl)FY-OH)"
8,22.95 ± 2.58 -fold induction over basal,"CCCCCCCC(=O)NCCCC[C@H](NC(=O)[C@@H](N)Cc1cn(C(c2ccccc2)(c2ccccc2)c2ccccc2)cn1)C(=O)N[C@H](Cc1ccc(F)cc1)C(=O)N[C@@H](Cc1ccc(O)cc1)C(=O)O [HKFY-28, ((R)-2-((S)-2-((S)-2-amino-3-(1-trityl-1H-imidazol-4-yl)propanamido)-6-octanamidohexanamido)-3-(4-fluorophenyl)propanoyl)-L-tyrosine] (H-[His(Trt)]K(Octanoyl)[dPhe(4-F)]Y-OH)"
9,26.8 ± 1.87 -fold induction over basal,"CCCCCCCC(=O)NCCCC[C@H](NC(=O)[C@@H](N)Cc1cn(C(c2ccccc2)(c2ccccc2)c2ccccc2)cn1)C(=O)N[C@H](Cc1ccc(Br)cc1)C(=O)N[C@@H](Cc1ccc(O)cc1)C(=O)O [HKFY-29, ((R)-2-((S)-2-((S)-2-amino-3-(1-trityl-1H-imidazol-4-yl)propanamido)-6-octanamidohexanamido)-3-(4-bromophenyl)propanoyl)-L-tyrosine] (H-[His(Trt)]K(Octanoyl)[dPhe(4-Br)]Y-OH)"
10,21.5 ± 2.7 -fold induction over basal,"CCCCCCCC(=O)NCCCC[C@H](NC(=O)[C@@H](N)Cc1cn(C(c2ccccc2)c2ccc(F)cc2F)cn1)C(=O)N[C@H](Cc1ccc(C)cc1)C(=O)N[C@@H](Cc1ccc(O)cc1)C(=O)O (stereo partly drawn) [HKFY-32, ((2R)-2-((2S)-2-((2S)-2-amino-3-(1-((2,4-difluorophenyl)(phenyl)methyl)-1H-imidazol-4-yl)propanamido)-6-octanamidohexanamido)-3-(p-tolyl)propanoyl)-L-tyrosine]"
11,16.5 ± 0.02 -fold induction over basal,"CCCCCCCC(=O)NCCCC[C@H](NC(=O)[C@@H](N)Cc1cn(C(c2ccccc2)(c2ccccc2)c2ccccc2)cn1)C(=O)N[C@@H](Cc1ccccc1)C(=O)N[C@@H](Cc1ccc(O)cc1)C(=O)N[C@@H](CO)C(=O)N[C@@H](CC(=O)O)C(=O)N[C@@H](CCC(N)=O)C(=O)N[C@@H](CCC(N)=O)C(=O)N[C@@H](C)C(=O)N[C@@H](CCCNC(=N)N)C(=O)N[C@@H](Cc1ccccc1)C(N)=O [HKFY-38, (3S,6S,9S,12S,15S)-15-((S)-2-amino-3-(1-trityl-1H-imidazol-4-yl)propanamido)-12-benzyl-3-(((6S,9S,12S,15S)-1,18-diamino-6-(((S)-1-amino-1-oxo-3-phenylpropan-2-yl)carbamoyl)-12-(3-amino-3-oxopropyl)-1-imino-9-methyl-8,11,14,18-tetraoxo-2,7,10,13-tetraazaoctadecan-15-yl)carbamoyl)-9-(4-hydroxybenzyl)-6-(hydroxymethyl)-5,8,11,14,21-pentaoxo-4,7,10,13,20-pentaazaoctacosanoic acid] (H-[His(Trt)]K(Octanoyl)FYSDQQARF-NH2)"
12,11.8 ± 0.02 -fold induction over basal,"CCCCCCCC(=O)NCCCC[C@H](NC(=O)[C@@H](N)Cc1cn(C(c2ccccc2)(c2ccccc2)c2ccccc2)cn1)C(=O)N[C@@H](Cc1ccccc1)C(=O)N[C@@H](Cc1ccc(O)cc1)C(=O)N[C@@H](Cc1c[nH]cn1)C(=O)N[C@@H](CCC(N)=O)C(=O)N[C@@H](CCC(N)=O)C(=O)N[C@@H](C)C(=O)N[C@@H](CCCNC(=N)N)C(=O)N[C@@H](Cc1ccccc1)C(N)=O [HKFY-42, (S)-2-((2S,5S,8S,11S)-2-((1H-imidazol-4-yl)methyl)-11-((S)-2-amino-3-(1-trityl-1H-imidazol-4-yl)propanamido)-8-benzyl-5-(4-hydroxybenzyl)-4,7,10,17-tetraoxo-3,6,9,16-tetraazatetracosanamido)-N1-((S)-5-amino-1-(((S)-1-(((S)-1-(((S)-1-amino-1-oxo-3-phenylpropan-2-yl)amino)-5-guanidino-1-oxopentan-2-yl)amino)-1-oxopropan-2-yl)amino)-1,5-dioxopentan-2-yl)pentanediamide] (H-[His(Trt)]K(Octanoyl)FYHQQARF-NH2)"
13,12.1 ± 0.02 -fold induction over basal,"CCCCCCCC(=O)NCCCC[C@H](NC(=O)[C@@H](N)Cc1cn(C(c2ccccc2)(c2ccccc2)c2ccccc2)cn1)C(=O)N[C@@H](Cc1ccccc1)C(=O)N[C@@H](Cc1ccc(O)cc1)C(=O)N[C@@H](CCC(N)=O)C(=O)N[C@@H](CC(N)=O)C(=O)N[C@@H](CCC(N)=O)C(=O)N[C@@H](C)C(=O)N[C@@H](CCCNC(=N)N)C(=O)N[C@@H](Cc1ccccc1)C(N)=O [HKFY-43, (S)-N1-((S)-1-(((S)-1-(((S)-1-amino-1-oxo-3-phenylpropan-2-yl)amino)-5-guanidino-1-oxopentan-2-yl)amino)-1-oxopropan-2-yl)-2-((2S,5S,8S,11S,14S)-2-(2-amino-2-oxoethyl)-14-((S)-2-amino-3-(1-trityl-1H-imidazol-4-yl)propanamido)-5-(3-amino-3-oxopropyl)-11-benzyl-8-(4-hydroxybenzyl)-4,7,10,13,20-pentaoxo-3,6,9,12,19-pentaazaheptacosanamido)pentanediamide] (H-[His(Trt)]K(Octanoyl)FYQNQARF-NH2)"
14,20 ± 0.47 -fold induction over basal,"CCCCCCCC(=O)NCCCC[C@H](NC(=O)[C@@H](N)Cc1cn(C(c2ccccc2)(c2ccccc2)c2ccccc2)cn1)C(=O)N[C@@H](Cc1ccccc1)C(=O)N[C@@H](Cc1ccc(O)cc1)C(=O)N[C@@H](Cc1c[nH]c2ccccc12)C(=O)O [HKFY-44, N6-octanoyl-N2-(Nt-trityl-L-histidyl)-L-lysyl-L-phenylalanyl-L-tyrosyl-L-tryptophan] (H-[His(Trt)]K(Octanoyl)FYW-OH)"
15,13 ± 1.7 -fold induction over basal,"CCCCCCCC(=O)NCCCC[C@H](NC(=O)[C@@H](N)Cc1cn(C(c2ccccc2)(c2ccccc2)c2ccccc2)cn1)C(=O)N[C@@H](Cc1ccc(O)cc1)C(=O)N[C@@H](Cc1ccccc1)C(=O)O [HKFY-47, N6-octanoyl-N2-(Nt-trityl-L-histidyl)-L-lysyl-L-tyrosyl-L-phenylalanine] (H-[His(Trt)]K(Octanoyl)YF-OH)"
16,14.4 ± 2.7 -fold induction over basal,"CCCCCCCC(=O)NCCCC[C@H](NC(=O)[C@@H](N)Cc1cn(C(c2ccccc2)(c2ccccc2)c2ccccc2)cn1)C(=O)N[C@@H](Cc1ccc(O)cc1)C(=O)N[C@@H](Cc1ccc(O)cc1)C(=O)O [HKFY-48, N6-octanoyl-N2-(Nt-trityl-L-histidyl)-L-lysyl-L-tyrosyl-L-tyrosine] (H-[His(Trt)]K(Octanoyl)YY-OH)"
17,18.3 ± 1.8 -fold induction over basal,"CCCCCCCC(=O)NCCCC[C@H](NC(=O)[C@@H](N)Cc1cn(C(c2ccccc2)(c2ccccc2)c2ccccc2)cn1)C(=O)N[C@@H](Cc1ccccc1)C(=O)O [HKFY-49, N6-octanoyl-N2-(Nt-trityl-L-histidyl)-L-lysyl-L-phenylalanine] (H-[His(Trt)]-Lys(Octanoyl)-Phe-OH)"
